Measurements as given in PubChem BioAssay (NCI).
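Grown in 96-well plates, cells were treated for 48 hours with each compound at five concentrations. Insufficient inhibition: endpoint recorded as highest concentration tested. TGI denotes the concentration required for complete inhibition of growth.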

Experiments:
Assay in all cases: NCI tumour cell line growth inhibition, 48 h
P388 leukemia = tested on: P388 leukemia
P388/ADR leukemia = tested on: P388/ADR leukemia
LXFL 529 NSCLC = tested on: LXFL 529 NSCLC

Work on `O=C1N[C@@H]2C(=C[C@H](O)[C@@H](O)[C@H]2O)c2cc3c(c(O)c21)OCO3` yielded a TGI (P388 leukemia) of 0.969 µM and a TGI (P388/ADR leukemia) of 0.45 µM.

In the case of `O=NN(CCF)C(=O)NC1CCSCC1`, the TGI (P388 leukemia) is reported as greater than 100 µM and the TGI (P388/ADR leukemia) is reported as greater than 100 µM.

With `O=C(c1ccccc1)c1c(CC(O)c2ccncc2)n(C(=O)c2ccccc2)c2ccccc12` (stereo not drawn) the TGI (LXFL 529 NSCLC) was 45.9 µM.

`COC(=O)C(=O)Cc1nc2ccccc2o1` gave a TGI (LXFL 529 NSCLC) greater than 100 µM.

With `CN1CCN(P2(=S)Oc3ccc4ccccc4c3-c3c(ccc4ccccc34)O2)CC1` the TGI (P388 leukemia) was greater than 68 µM and the TGI (P388/ADR leukemia) was greater than 95.5 µM.

For `CCOC(=O)c1c[nH]c2ccc3c(c2c1=O)S(=O)(=O)CC3` (tested in a mixture with another compound), the TGI (P388 leukemia) was greater than 100 µM and the TGI (P388/ADR leukemia) was greater than 100 µM.

With `Cc1cc(NS(=O)(=O)c2ccc(NC(=O)c3cccc4c(Nc5ccc(S(N)(=O)=O)cc5)c5ccccc5nc34)cc2)no1` the TGI (LXFL 529 NSCLC) was greater than 100 µM.

With `O=C1NC2CCCCCC2C12CCCCC2` (stereo not drawn) the TGI (LXFL 529 NSCLC) was greater than 100 µM.

`O=C1CCCC/C1=C\c1ccc(Cl)c(Cl)c1` was tested, and the TGI (LXFL 529 NSCLC) was 31.2 µM.
